Test results published in ChEMBL document CHEMBL2062415, “Steroids from Commiphora mukul display antiproliferative effect against human prostate cancer PC3 cells via induction of apoptosis” (Bioorg Med Chem Lett, 2012).

Experiments:
MCF7 [1] = assay: Induction of apoptosis in human MCF7 cells assessed as accumulation at G2/M phase at 20 uM after 48 hrs by propidium iodide staining-based flow cytometric analysis (reference value: 9.55%); assay type: functional
PC-3 [2] = assay: Induction of apoptosis in human PC3 cells assessed as necrotic cells at 5 uM after 48 hrs by annexinV/propidium iodide staining-based FITC analysis relative to control; assay type: functional
K562 [3] = assay: Induction of apoptosis in human K562 cells assessed as accumulation at G0/G1 phase at 1 uM after 48 hrs by propidium iodide staining-based flow cytometric analysis (reference value: 38.61%); assay type: functional
DU-145 = assay: Induction of apoptosis in human DU145 cells assessed as early apoptotic cells at 40 uM after 48 hrs by annexinV/propidium iodide staining-based FITC analysis (reference value: 2.34%); assay type: functional
PC-3 [4] = assay: Cell cycle arrest in human PC3 cells assessed as accumulation at S phase at 10 uM after 48 hrs by propidium iodide staining-based flow cytometric analysis relative to control; assay type: functional
PC-3 [5] = assay: Cell cycle arrest in human PC3 cells assessed as accumulation at G0/G1 phase at 10 uM after 48 hrs by propidium iodide staining-based flow cytometric analysis relative to control; assay type: functional
PC-3 [6] = assay: Induction of apoptosis in human PC3 cells assessed as early apoptotic cells after 48 hrs by annexinV/propidium iodide staining-based FITC analysis relative to control; assay type: functional, cell-based
K562 [7] = assay: Induction of apoptosis in human K562 cells assessed as late apoptotic cells at 10 uM after 48 hrs by annexinV/propidium iodide staining-based FITC analysis (reference value: 2.55%); assay type: functional
MCF7 [8] = assay: Induction of apoptosis in human MCF7 cells assessed as late apoptotic cells at 10 uM after 48 hrs by annexinV/propidium iodide staining-based FITC analysis (reference value: 3.57%); assay type: functional
MCF7 [9] = assay: Induction of apoptosis in human MCF7 cells assessed as necrotic cells at 10 uM after 48 hrs by annexinV/propidium iodide staining-based FITC analysis (reference value: 8.28%); assay type: functional
K562 [10] = assay: Induction of apoptosis in human K562 cells assessed as necrotic cells at 5 uM after 48 hrs by annexinV/propidium iodide staining-based FITC analysis (reference value: 1.19%); assay type: functional
MCF7 [11] = assay: Cytotoxicity against human MCF7 cells assessed as cell viability at 10 uM after 24 hrs by MTT assay; assay type: functional; details: MCF7, 24 h, read-out: Activity
K562 [12] = assay: Induction of apoptosis in human K562 cells assessed as accumulation at S phase at 10 uM after 48 hrs by propidium iodide staining-based flow cytometric analysis (reference value: 45.67%); assay type: functional
K562 [13] = assay: Induction of apoptosis in human K562 cells assessed as late apoptotic cells at 1 uM after 48 hrs by annexinV/propidium iodide staining-based FITC analysis (reference value: 2.55%); assay type: functional

CC[C@H](/C=C/[C@@H](C)[C@H]1CC[C@H]2[C@H]3[C@H]([C@H](O)C[C@]12C)[C@@]1(C)CC[C@H](O)CC1=C[C@H]3O)C(C)C
Activity (MCF7 [1]): 24.7%
Activity (PC-3 [2]): 1.87%
Activity (K562 [3]): 41.16%
Activity (DU-145): 3.13%
Activity (PC-3 [4]): 23.27%
Activity (PC-3 [5]): 52.69%
Activity (PC-3 [6]): Dose-dependent effect
Activity (K562 [7]): 2.62%
Activity (MCF7 [8]): 4.42%
Activity (MCF7 [9]): 4.47%
Activity (K562 [10]): 1.59%
viability at 10 µM (MCF7 [11]): 36%
Activity (K562 [12]): 48.25%
Activity (K562 [13]): 1.79%
